# Source: patent US20260373248A1, “DEGRADABLE PEPTOIDS” (Medici Therapeutics, Inc., priority 2023, published 2026)
# Starred links: 1 amine or outer side, 2 acyl side, 3 side chain; linkers in the order of their positions; H or OH if unused. Non-standard residues stand in square brackets, D forms with d. Residues, ends and D or L forms follow the SMILES beside them. *: point of attachment. Gly(N-(3-decanoyloxypropyl)) = CCCCCCCCCC(=O)OCCCNCC(=O)O; N(2-decanoyloxyethyl)Gly = CCCCCCCCCC(=O)OCCNCC(=O)O; Gly(N-(CH2)3O-octanoyl) = CCCCCCCC(=O)OCCCNCC(=O)O; N(3-imidazol-1-ylpropyl)Gly = O=C(O)CNCCCn1ccnc1; Gly(N-3-morpholinopropyl) = O=C(O)CNCCCN1CCOCC1; N(2-ethylhexyl)Gly = CCCCC(CC)CNCC(=O)O; X2 = CCCCCCC(CCCC)CN(CC(=O)[*:2])[*:1]; Gly(N-dodecyl) = CCCCCCCCCCCCNCC(=O)O; N(CH(CH2OH)2)Gly = O=C(O)CNC(CO)CO; NHexGly = CCCCCCNCC(=O)O; For = O=C*
# Experiments:
# [1] = Delivery vehicle size and polydispersity by dynamic light scattering; assay type: physicochemical
# Method in brief: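 LNPs made by microfluidic mixing of ethanolic peptoid/DSPC/cholesterol/DMG-PEG2000 (20:1.79:7.16:1.84 by weight) with mRNA in 10 mM citrate pH 5.0 at 1:3 by volume, then dialyzed overnight at 4 °C against tris-sucrose pH 7.4. Size and PDI read by dynamic light scattering in PBS.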
# mRNA = mRNA encapsulation (modified Quant-iT RiboGreen assay); assay type: physicochemical; conditions: for mean percent encapsulation of RNA: RiboGreen, without vs with Triton X-100; for % Encapsulation: mRNA
# Method in brief: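 Peptoid nanoparticles were incubated with Triton X-100 for 10 min to release entrapped mRNA, then mixed with RiboGreen reagent and read by fluorescence (ex 485 nm/em 530 nm). Percent encapsulation was derived from the ratio of fluorescence without versus with Triton X-100.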
# hEPO = assay: Quantification of hEPO in serum after IV injection of mRNA (Human EPO ELISA); assay type: in vivo; conditions: Balb/c mice, 2.5 μg mRNA IV, serum after 6 hours
# Method in brief: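 Balb/c mice received 2.5 μg mRNA encoding human EPO by IV injection; serum was collected after 6 hours. hEPO was measured by sandwich ELISA (biotin-conjugate, streptavidin-HRP, TMB, A450) against kit standards (mIU/mL) and an external standard (ng/mL), with values interpolated and corrected for dilution.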
# firefly luciferase = assay: In vivo firefly luciferase expression after intravenous injection of fLuc mRNA delivery vehicles (IVIS imaging); set-up: species or system female Balb/c mice; conditions: for Total Flux (luciferase expression): fLuc mRNA, intravenous, Balb/c mice; for Total Flux: mice, 2.5 ug fLuc mRNA intravenously, 6 hours post-injection
# Method in brief: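 Female Balb/c mice (6-8 weeks) given 2.5 ug fLuc mRNA in Nutshells IV. At 6 hours, IP D-luciferin (30 mg/mL, 10 μL/g) under isoflurane; IVIS imaging 10 minutes later, then harvested organs imaged ex vivo. Read-out: total photon flux in regions of interest.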
# [2] = Peptoid quantity remaining in liver by HPLC-TOF mass spectrometry; assay type: in vivo; conditions: liver homogenate
# Method in brief: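 Whole liver weighed; 20 mg tissue bead-homogenized in IPA/MeOH (8/2) with internal standard, centrifuged, supernatant run on BEH C8 HPLC-TOF MS. Peptoid concentration derived from linear calibration curve (0.2-50 μg/g) prepared in spiked untreated liver.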
# luciferase = assay: Luciferase expression after local (intramuscular or subcutaneous) administration of mRNA; assay type: in vivo; conditions: mRNA 0.01 mpk, 6 hours; for IM Flux: intramuscular; for SC Flux: subcutaneous
# Method in brief: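 Female Balb/c mice (6-8 weeks) received fLuc mRNA in aminolipidated peptoid Nutshells at 0.01 mpk subcutaneously or intramuscularly, or 0.1 mpk intratumorally. At 6 hours, anesthetized mice were given D-luciferin IP and imaged 10 minutes later; harvested organs were also imaged and total photon flux quantified in regions of interest.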
# [3] = DLS in PBS, peptoid:DSPC:Cholesterol:DMG-PEG2000 weight ratio 20:1.79:7.16:1.84, mRNA
"PDI [1, 3]","Particle Size [1, 3] [nm]",mean percent encapsulation of RNA (mRNA) [%],% of injected dose remaining in liver [2],SMILES,hEPO (hEPO) [ng/mL],Total Flux (firefly luciferase) [p/s],IM Flux (luciferase) [p/s],SC Flux (luciferase) [p/s],other results
0.118,73.1,7.4,16.59%,CCCCCCCCCCCCN(C=O)CC(=O)N(CCCOC(=O)CCCCCCCCC)CC(=O)N(CC(=O)N(CCCN1CCOCC1)CC(=O)N(CC(=O)N(CCCOC(=O)CCCCCCCCC)CC(=O)N(CCCCCCCCCCCC)CC(N)=O)CC(CC)CCCC)CC(CC)CCCC (stereo not drawn) [Compound 88] (For-[Gly(N-dodecyl)][Gly(N-(3-decanoyloxypropyl))][N(2-ethylhexyl)Gly][Gly(N-3-morpholinopropyl)][N(2-ethylhexyl)Gly][Gly(N-(3-decanoyloxypropyl))][Gly(N-dodecyl)]-NH2),109,3.77E+08,4.29E+07,6.88E+07,Particle Size ([1]; formulation recipe F2): 72.4 nm; % Encapsulation (mRNA; formulation recipe F2): 71.8%; Total Flux (luciferase expression) (firefly luciferase; formulation recipe F2): 1.59E+09 p/s
0.103,109.3,68.4,19.76%,CCCCCCCCCCCC(=O)OCCCN(CC(=O)N(CC(=O)N(CC(=O)N(CCCn1ccnc1)CC(=O)N(CC(=O)N(CC(=O)N(CCCOC(=O)CCCCCCCCCCC)CC(=O)N(CC(N)=O)CC(CC)CCCC)Cc1ccco1)CC(CC)CCCC)CC(CC)CCCC)Cc1ccco1)C(=O)CN(C=O)CC(CC)CCCC (stereo not drawn) [Compound 100],59.4,2.32E+08,4.86E+07,6.16E+07,–
0.123,97.8,47.1,0.86%,CCCCCCCCCC(=O)OCCCN(CC(N)=O)C(=O)CN(CCCOC(=O)CCCCCCCCC)C(=O)CN(CC(CC)CCCC)C(=O)CN(CCCOC(=O)CCCCCCCCC)C(=O)CN(CCCOC(=O)CCCCCCCCC)C(=O)CN(CC(CC)CCCC)C(=O)CNC(CO)CO (stereo not drawn) [Compound 102] (H-[N(CH(CH2OH)2)Gly][N(2-ethylhexyl)Gly][Gly(N-(3-decanoyloxypropyl))][Gly(N-(3-decanoyloxypropyl))][N(2-ethylhexyl)Gly][Gly(N-(3-decanoyloxypropyl))][Gly(N-(3-decanoyloxypropyl))]-NH2),207,1.90E+09,2.12E+08,1.76E+08,–
0.111,81.5,76.8,bdl,CCCCCCCCCC(=O)OCCCN(CC(N)=O)C(=O)CN(CC(CC)CCCC)C(=O)CN(CCCOC(=O)CCCCCCCCC)C(=O)CN(CCCOC(=O)CCCCCCCCC)C(=O)CN(CCCOC(=O)CCCCCCCCC)C(=O)CN(CC(CC)CCCC)C(=O)CNC(CO)CO (stereo not drawn) [Compound 103] (H-[N(CH(CH2OH)2)Gly][N(2-ethylhexyl)Gly][Gly(N-(3-decanoyloxypropyl))][Gly(N-(3-decanoyloxypropyl))][Gly(N-(3-decanoyloxypropyl))][N(2-ethylhexyl)Gly][Gly(N-(3-decanoyloxypropyl))]-NH2),961,8.56E+09,1.93E+08,7.28E+08,–
0.092,78.8,93.6,7.45%,CCCCCCCC(=O)OCCCN(CC(=O)N(CC(=O)N(CC(=O)N(CCCOC(=O)CCCCCCC)CC(=O)N(CC(N)=O)CC(CCCC)CCCCCC)CC(CC)CCCC)CC(CCCC)CCCCCC)C(=O)CN(CC(CC)CCCC)C(=O)CNC(CO)CO (stereo not drawn) [Compound 104] (H-[N(CH(CH2OH)2)Gly][N(2-ethylhexyl)Gly][Gly(N-(CH2)3O-octanoyl)][X2][N(2-ethylhexyl)Gly][Gly(N-(CH2)3O-octanoyl)][X2]-NH2),693,4.50E+09,1.34E+08,1.93E+08,–
0.150,75.9,73.2,7.51%,CCCCCCCCCC(=O)OCCN(CC(N)=O)C(=O)CN(CCOC(=O)CCCCCCCCC)C(=O)CN(CC(CC)CCCC)C(=O)CN(CCOC(=O)CCCCCCCCC)C(=O)CN(CCOC(=O)CCCCCCCCC)C(=O)CN(CC(CC)CCCC)C(=O)CNC(CO)CO (stereo not drawn) [Compound 105] (H-[N(CH(CH2OH)2)Gly][N(2-ethylhexyl)Gly][N(2-decanoyloxyethyl)Gly][N(2-decanoyloxyethyl)Gly][N(2-ethylhexyl)Gly][N(2-decanoyloxyethyl)Gly][N(2-decanoyloxyethyl)Gly]-NH2),580,1.05E+10,2.85E+08,9.57E+08,Particle Size ([1]; formulation recipe D22): 75.9 nm; Particle Size ([1]; formulation recipe R1): 55.6 nm; Particle Size ([1]; formulation recipe R4): 59.6 nm; Particle Size ([1]; formulation recipe R5): 63.5 nm; Particle Size ([1]; formulation recipe R9): 64.9 nm; Particle Size ([1]; formulation recipe R10): 68.6 nm; % Encapsulation (mRNA; formulation recipe D22): 73.2%; % Encapsulation (mRNA; formulation recipe R1): 92.7%; % Encapsulation (mRNA; formulation recipe R4): 73.1%; % Encapsulation (mRNA; formulation recipe R5): 94.6%; % Encapsulation (mRNA; formulation recipe R9): 94.0%; % Encapsulation (mRNA; formulation recipe R10): 93.2%; Total Flux (luciferase expression) (firefly luciferase; formulation recipe D22): 1.05E+10 p/s; Total Flux (luciferase expression) (firefly luciferase; formulation recipe R1): 4.15E+08 p/s; Total Flux (luciferase expression) (firefly luciferase; formulation recipe R4): 2.47E+09 p/s; Total Flux (luciferase expression) (firefly luciferase; formulation recipe R5): 1.28E+09 p/s; Total Flux (luciferase expression) (firefly luciferase; formulation recipe R9): 1.56E+09 p/s; Total Flux (luciferase expression) (firefly luciferase; formulation recipe R10): 2.70E+09 p/s
0.155,91.5,80.0,5.86%,CCCCCCCCCC(=O)OCCCN(CC(=O)N(CC(=O)N(CC(=O)N(CCCOC(=O)CCCCCCCCC)CC(=O)N(CC(N)=O)CC(CC)CCCC)CC(CC)CCCC)CC(CC)CCCC)C(=O)CN(CC(CC)CCCC)C(=O)CN(C=O)CCCN1CCOCC1 (stereo not drawn) [Compound 106] (For-[Gly(N-3-morpholinopropyl)][N(2-ethylhexyl)Gly][Gly(N-(3-decanoyloxypropyl))][N(2-ethylhexyl)Gly][N(2-ethylhexyl)Gly][Gly(N-(3-decanoyloxypropyl))][N(2-ethylhexyl)Gly]-NH2),471,6.71E+09,1.07E+08,1.70E+08,–
0.140,77.4,96.1,47.20%,CCCCCCCCCC(=O)OCCCN(CC(=O)N(CC(=O)N(CC(=O)N(CCCOC(=O)CCCCCCCCC)CC(=O)N(CC(N)=O)CC(CC)CCCC)CC(CC)CCCC)CC(CC)CCCC)C(=O)CN(CC(CC)CCCC)C(=O)CNCCCn1ccnc1 (stereo not drawn) [Compound 107] (H-[N(3-imidazol-1-ylpropyl)Gly][N(2-ethylhexyl)Gly][Gly(N-(3-decanoyloxypropyl))][N(2-ethylhexyl)Gly][N(2-ethylhexyl)Gly][Gly(N-(3-decanoyloxypropyl))][N(2-ethylhexyl)Gly]-NH2),268,2.01E+09,7.22E+07,7.41E+07,–
0.263,96.7,49.9,7.35%,CCCCCCCCCC(=O)OCCCN(CC(=O)N(CCCOC(=O)CCCCCCCCC)CC(=O)N(CCCCCC)CC(=O)N(CCCOC(=O)CCCCCCCCC)CC(=O)N(CCCOC(=O)CCCCCCCCC)CC(=O)N(CCCCCC)CC(N)=O)C(=O)CN(C=O)CCCN1CCOCC1 [Compound 108] (For-[Gly(N-3-morpholinopropyl)][Gly(N-(3-decanoyloxypropyl))][Gly(N-(3-decanoyloxypropyl))][NHexGly][Gly(N-(3-decanoyloxypropyl))][Gly(N-(3-decanoyloxypropyl))][NHexGly]-NH2),377,4.91E+09,1.25E+08,1.74E+08,Particle Size ([1]; formulation recipe F2): 95.3 nm; % Encapsulation (mRNA; formulation recipe F2): 60.1%; Total Flux (luciferase expression) (firefly luciferase; formulation recipe F2): 1.47E+09 p/s
